# Reference: US9357779B2 (priority 2010, dated 2016)
# How the values were obtained:
# Phytophthora infestans = type: in vivo; details: tomato plants, protective, active compound concentration 500 ppm, evaluation 7 days after inoculation
# Plasmopara viticola = assay: Plasmopara test (grapevine)/protective; type: in vivo; details: protective, active compound concentration 500 ppm, evaluation 6 days after inoculation
# Method: Plasmopara Test (Grapevine)/Protective
# To produce a suitable preparation of active compound, 1 part by weight of active compound is mixed with the stated amounts of solvent and emulsifier, and the concentrate is diluted with water to the desired concentration.
# To test for protective activity, young plants are sprayed with the preparation of active compound at the stated application rate. After the spray coating has dried on, the plants are inoculated with an aqueous spore suspension of Plasmopara viticola and then remain in an incubation cabin at about 20° C. and 100% relative atmospheric humidity for 1 day. The plants are then placed in a greenhouse at about 21° C. and about 90% atmospheric humidity for 4 days. The plants are then moistened and placed in an incubation cabin for 1 day.
# Evaluation is carried out 6 days after the inoculation. 0% means an efficacy which corresponds to that of the control, whereas an efficacy of 100% means that no infection is observed.
# [1] = acidic range, pH 2.7, 0.1% aqueous formic acid/acetonitrile
# Method: (§1) Calibration was carried out using unbranched alkan-2-ones (having from 3 to 16 carbon atoms) with known log P values (the log P values were determined by the retention times using linear interpolation between two successive alkanones).
# [2] = pH 2.7, log P [a], acidic range, pH 2.7, 0.1% aqueous formic acid/acetonitrile
# Method for physchem: as §1
SMILES,efficacy (Phytophthora infestans),efficacy (Plasmopara viticola),log P [a] [1],chromatographic logP (physchem; [2]),chromatographic logP (physchem; pH 7.8),chromatographic logP (physchem; pH 2.7)
O=C(/C=C/c1csc(C2CCN(C(=O)Cn3nc(C(F)F)cc3C(F)F)CC2)n1)c1c(Cl)cccc1Cl [Compound I-43],90%,100%,3.7^[a],,,
O=C(/C=C/c1csc(C2CCN(C(=O)Cn3nc(C(F)F)cc3C(F)F)CC2)n1)c1cc(F)ccc1Cl [Compound I-35],95%,89%,3.64^[a];,,,
O=C(/C=C/c1csc(C2CCN(C(=O)Cn3nc(C(F)F)cc3C(F)F)CC2)n1)c1cccc2ccccc12 [Compound I-46],95%,100%,2.84^[a],,,
O=C(/C=C/c1csc(C2CCN(C(=O)Cn3nc(C(F)F)cc3C(F)F)CC2)n1)C1CCCC1 [Compound I-49],90%,79%,3.52^[a],,,
O=C(/C=C/c1csc(C2CCN(C(=O)Cn3nc(C(F)F)cc3C(F)F)CC2)n1)c1c(F)cc(F)cc1F [Compound I-57],98%,91%,3.51^[a];,,,
"Cc1ccc(Cl)cc1NC(=O)N1CCC(c2nc(C(=O)CC3CCCCC3)cs2)CC1 [Compound I-25, N-(5-Chloro-2-methylphenyl)-4-[4-(cyclohexylacetyl)-1,3-thiazol-2-yl]piperidine-1-carboxamide]",100%,96%,,4.51,4.55,
"O=C(/C=C/c1csc(C2CCN(C(=O)Cn3nc(C(F)F)cc3C(F)F)CC2)n1)c1c(F)cccc1F [Compound I-22, (2E)-3-[2-(1-{[3,5-Bis(difluoromethyl)-1H-pyrazol-1-yl]acetyl}piperidin-4-yl)-1,3-thiazol-4-yl]-1-(2,6-difluorophenyl)prop-2-en-1-one]",100%,100%,,3.35,,
O=C(CC1CCCCC1)c1csc(C2CCN(C(=O)Nc3cc(C(F)F)ccc3C(F)F)CC2)n1 [Compound I-30],95%,85%,4.3^[a];,,,
Cc1ccccc1C(=O)/C=C/c1csc(C2CCN(C(=O)Cn3nc(C(F)F)cc3C(F)F)CC2)n1 [Compound I-45],95%,100%,3.56^[a],,,
"CON=C(CC1CCCCC1)c1csc(C2CCN(C(=O)Cn3nc(C(F)F)cc3C(F)F)CC2)n1 [Compound I-60, 2-[3,5-Bis(difluoromethyl)-1H-pyrazol-1-yl]-1-{4-[4-(2-cyclohexyl-N-methoxyethanimidoyl)-1,3-thiazol-2-yl]piperidin-1-yl}ethanone]",95%,,,4.8,,
O=C(/C=C/c1csc(C2CCN(C(=O)Cn3nc(C(F)F)cc3C(F)F)CC2)n1)c1ccccc1Br [Compound I-29],100%,95%,3.51^[a];,,,
CC1CCCCC1C(=O)C=Cc1csc(C2CCN(C(=O)Cn3nc(C(F)F)cc3C(F)F)CC2)n1 (mixture of isomers) [Compound I-50],95%,93%,4.11^[a],,,
O=C(/C=C/c1csc(C2CCN(C(=O)Cn3nc(C(F)F)cc3C(F)F)CC2)n1)c1c(F)cccc1Cl [Compound I-36],100%,96%,3.54^[a];,,,
O=C(/C=C/c1csc(C2CCN(C(=O)Cn3nc(C(F)F)cc3C(F)F)CC2)n1)c1ccc(F)cc1Br [Compound I-34],95%,84%,3.7^[a];,,,
"CCOc1ccccc1C(=O)CCc1csc(C2CCN(C(=O)Cn3nc(C(F)(F)F)cc3C)CC2)n1 [Compound I-20, 1-(2-Ethoxyphenyl)-3-[2-(1-{[5-methyl-3-(trifluoromethyl)-1H-pyrazol-1-yl]acetyl}piperidin-4-yl)-1,3-thiazol-4-yl]propan-1-one]",,,,3.7,3.68,
C#CCOc1ccccc1C(=O)/C=C/c1csc(C2CCN(C(=O)Cn3nc(C(F)F)cc3C(F)F)CC2)n1 [Compound I-55],98%,100%,3.28^[a],,,
"CC(C)(C)OC(=O)N1CCC(c2nc(C(=O)CCc3ccccc3)cs2)CC1 [IV-2, tert-Butyl 4-[4-(3-phenylpropanoyl)-1,3-thiazol-2-yl]piperidine-1-carboxylate]",,,,,,4.54
O=C(/C=C/c1csc(C2CCN(C(=O)Cn3nc(C(F)F)cc3C(F)F)CC2)n1)c1ccccc1Cl [Compound I-42],100%,90%,3.51^[a],,,
"O=C(CC1CCCCC1)c1csc(C2CCNCC2)n1 [II-1, 4-[4-(Cyclohexylacetyl)-1,3-thiazol-2-yl]piperidinium chloride]",,,,,,1.35
O=C(/C=C/c1csc(C2CCN(C(=O)Cn3nc(C(F)F)cc3C(F)F)CC2)n1)C1CCCCC1 [Compound I-44],95%,74%,3.89^[a],,,
CC(CC(=O)c1c(F)cccc1F)c1csc(C2CCN(C(=O)Cn3nc(C(F)F)cc3C(F)F)CC2)n1 (stereo not shown) [Compound I-51],98%,100%,,,,
"CC(C)(C)OC(=O)N1CCC(c2nc(C(=O)CC3CCCCC3)cs2)CC1 [IV-1, tert-Butyl 4-[4-(cyclohexylacetyl)-1,3-thiazol-2-yl]piperidine-1-carboxylate]",,,,,,5.43
"C#Cc1csc(C2CCN(C(=O)OC(C)(C)C)CC2)n1 [VI-1, tert-Butyl 4-(4-ethynyl-1,3-thiazol-2-yl)piperidine-1-carboxylate]",,,,,,3.1
"O=C(CC1CCCCC1)c1csc(C2CCN(C(=O)Cn3nc(C(F)F)cc3C(F)F)CC2)n1 [Compound I-24, 2-[3,5-Bis(difluoromethyl)-1H-pyrazol-1-yl]-1-{4-[4-(cyclohexylacetyl)-1,3-thiazol-2-yl]piperidin-1-yl}ethanone]",94%,100%,,,,
"O=C(CC1CCCCC1)c1csc(C2CCN(C(=S)Cn3nc(C(F)F)cc3C(F)F)CC2)n1 [Compound I-58, 1-[2-(1-{2-[3,5-Bis(difluoromethyl)-1H-pyrazol-1-yl]ethanethioyl}piperidin-4-yl)-1,3-thiazol-4-yl]-2-cyclohexylethanone]",,,,4.63,4.56,
O=C(/C=C/c1csc(C2CCN(C(=O)Cn3nc(C(F)F)cc3C(F)F)CC2)n1)c1ccccc1I [Compound I-33],95%,89%,3.65^[a];,,,
"O=C(CCc1ccccc1)c1csc(C2CCNCC2)n1 [II-2, 4-[4-(3-Phenylpropanoyl)-1,3-thiazol-2-yl]piperidinium chloride]",,,,,,1.19
O=C(/C=C/c1csc(C2CCN(C(=O)Cn3nc(C(F)F)cc3C(F)F)CC2)n1)c1cccc(F)c1 [Compound I-52],98%,94%,3.35^[a],,,
